These compounds were tested against T1, human BACE1 (sproBACE1) (Homo sapiens, UniProt P56817) (assay: BACE-1 Peptide Hydrolysis Assay (HTRF)). Settings: not given.
T1 construct: sBACE1, corresponding to amino acids 1-454; made in house; host or cells: Sf9 insect cells (baculovirus), secreted into the medium
Format: biochemical
Excerpt: A HindIII/PmeI fragment from pCDNA4-sBACE1myc/His was blunt ended using Klenow and subcloned into the Stu I site of PFASTBACI(A) (Invitrogen). A sBACE1mycHis recombinant bacmid was generated by transposition in DH10Bac cells (GIBCO/BRL). Subsequently, the sBACE1mycHis bacmid construct was transfected into sf9 cells using CellFectin (Invitrogen, San Diego, Calif.) in order to generate recombinant baculovirus. […] Five milliliters of high titer plaque purified sBACEmyc/His virus was used to infect 1 L of logarithmically growing sf9 cells for 72 hours. Intact cells were pelleted by centrifugation at 3000×g for 15 minutes. The supernatant, containing secreted sBACE1, was collected and diluted 50% v/v with 100 mM HEPES, pH 8.0. The diluted medium was loaded onto a Q-sepharose column. The Q-sepharose column was washed with Buffer A (20 mM HEPES, pH 8.0, 50 mM NaCl).
Proteins, were eluted from the Q-sepharose column with Buffer B (20 mM HEPES, pH 8.0, 500 mM NaCl). The protein peaks from the Q-sepharose column were pooled and loaded onto a Ni-NTA agarose column. The Ni-NTA column was then washed with Buffer C (20 mM HEPES, pH 8.0, 500 mM NaCl). Bound proteins were then eluted with Buffer D (Buffer C+250 mM imidazole).
Reactions were initiated by addition of substrate in a 5 μl aliquot resulting in a total volume of 25 μl. After 3 hr at 30° C. reactions were terminated by addition of an equal volume of 2× stop buffer containing 50 mM Tris-HCl pH 8.0, 0.5 M KF, 0.001% Brij-35, 20 μg/ml SA-XL665 (cross-linked allophycocyanin protein coupled to streptavidin; CIS-Bio International, France) (0.5 μg/well). Plates were shaken briefly and spun at 1200×g for 10 seconds to pellet all liquid to the bottom of the plate before the incubation.
Y=Bottom+(Top-Bottom)/(1+10^((LogEC50−X)*Hill Slope)); X is the logarithm of concentration of I, Y is the percent change in ratio and Y starts at bottom and goes to top with a sigmoid shape.

T1 sequence (P56817 22-454): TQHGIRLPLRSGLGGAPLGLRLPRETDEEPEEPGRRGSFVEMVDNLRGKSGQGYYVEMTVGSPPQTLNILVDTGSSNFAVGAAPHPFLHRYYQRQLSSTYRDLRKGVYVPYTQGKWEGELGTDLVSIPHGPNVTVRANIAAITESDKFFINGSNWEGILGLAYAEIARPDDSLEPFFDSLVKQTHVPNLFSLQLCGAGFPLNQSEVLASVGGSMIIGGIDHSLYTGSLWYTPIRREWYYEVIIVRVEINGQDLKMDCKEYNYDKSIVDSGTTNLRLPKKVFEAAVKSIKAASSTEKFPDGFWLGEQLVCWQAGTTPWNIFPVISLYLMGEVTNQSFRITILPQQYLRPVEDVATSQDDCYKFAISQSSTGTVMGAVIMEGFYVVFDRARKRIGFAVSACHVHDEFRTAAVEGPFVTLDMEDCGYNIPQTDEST

| Compound | Ki |
| --- | --- |
| CCn1nccc1Nc1cccc(C2(C)NC(=N)N(CC3CCN(C(C)=O)CC3)C2=O)c1 (racemic) | < 5 µM |
| CC(=O)N1CCC(CN2C(=N)NC(C)(c3cccc(-c4cn[nH]c4)c3)C2=O)CC1 (stereo not drawn) | < 5 µM |
| COc1ccc(C=O)c(-c2cccc(C3(C)NC(=N)N(CC4CCN(C(C)=O)CC4)C3=O)c2)c1 (stereo not drawn) | < 5 µM |

Same assay, conditions: read-out: BACE-1 Ki

| Compound | Ki |
| --- | --- |
| CN1CCC(CN2C(=N)NC(C)(c3cccc(-c4cccc(Cl)c4)c3)C2=O)C1 (stereo not drawn) | < 5 µM |
| COc1cccc(-c2cccc(C3(C)CON(C)C(=N)N3)c2)c1 (stereo not drawn) | < 5 µM |
| CN1C(=N)N[C@@](c2cccc(-c3cc(Cl)cnc3F)c2)(C2CC2)C1=O | < 5 µM |
| CC(C)Oc1cc(Cl)cc(-c2csc([C@]3(C)CC(=O)N(C)C(=N)N3)c2)c1 | < 5 µM |
| Cc1ccc(-c2csc([C@]3(C)CC(=O)N(C)C(=N)N3)c2)cc1C#N | < 5 µM |
| CC[C@H]1C(=O)N(C)C(=N)N[C@]1(C)c1cccc(-c2cccc(OC)c2)c1 | < 5 µM |
| CN1C(=N)NC(c2ccc(-c3ccc(F)c(C#N)c3)s2)(C2CC2)CC1=O (stereo not drawn) | < 5 µM |
| CN1C(=N)N[C@](C)(c2ccc3c(Br)n[nH]c3c2)CC1=O | < 5 µM |
| CN1C(=N)NC(c2ccccc2)(c2cc(-c3cncnc3)cs2)C1=O (stereo not drawn) | < 5 µM |
| N=C1NC(c2ccccc2)(c2ccccc2)C(=O)N1Cc1cccc(NC(=O)C2CCCCC2)c1 | < 5 µM |
| CN1C(=N)N[C@@](CCC2CCCCC2)(C[C@H]2CCC[C@@H](Nc3ccc4cccc(Cl)c4n3)C2)C1=O | < 5 µM |
| Cc1c(-c2ccc(F)c(C#N)c2)sc([C@@]2(C)CC(=O)N(C)C(=N)N2)c1Cl | < 5 µM |
| CN1C(=N)N[C@@](c2cccc(-c3cccnc3F)c2)(C2CC2)C1=O | < 5 µM |
| CCC[C@H]1C(=O)N(C)C(=N)N[C@]1(C)c1cc(-c2cccc(C#N)c2)cs1 | < 5 µM |
| CCN(CCc1cccc(C2(c3ccccc3)NC(=N)N(C)C2=O)c1)S(C)(=O)=O (racemic) | < 5 µM |
| CN1C(=N)NC(c2cccc(Br)c2)(C2CCCCC2)C1=O (stereo not drawn) [5-(3-BROMOPHENYL)-5-CYCLOHEXYL-2-IMINO-3-METHYL-4-IMIDAZOLIDINONE] | < 5 µM |
| CN1C(=N)N[C@](C)(c2csc3c(-c4ccsc4)cccc23)CC1=O | < 5 µM |
| CN1C(=N)N[C@](CCc2ccccc2)(C[C@H]2CCC[C@H](Nc3cccnc3)C2)C1=O | < 5 µM |
| CN1C(=N)NC(C)(c2ccnc(-c3cc(Cl)cc(Cl)c3)c2)C1=O (stereo not drawn) | < 5 µM |
| Cc1csc(-c2csc(C3(C4CC4)NC(=N)N(C)C3=O)c2)c1 (stereo not drawn) | < 5 µM |
| CN1C(=N)N[C@](C)(c2cc(-c3ccc(F)c(C#N)c3)cs2)[C@H](C2CCC2)C1=O | < 5 µM |

| Compound | Ki |
| --- | --- |
| CC(=O)N1CCC[C@H](CN2C(=N)NC(c3ccccc3)(c3ccccc3)C2=O)C1 | < 5 µM |
| CCC[C@H]1C(=O)N(C)C(=N)N[C@]1(C)c1cccc(-c2cccc(C#N)c2)c1 | < 5 µM |
| CN1C(=N)NC(C)(c2cccc(-c3cncc(F)c3)c2)C1=O (stereo not drawn) | < 5 µM |
| CN1C(=N)N[C@](C)(c2cnc[nH]2)[C@@H](c2cccc(C(C)(F)F)c2)C1=O | < 5 µM |
| CN1C(=N)NC(C)(c2cccc(-c3cc(Cl)ccc3CNC(=O)c3ccncc3)c2)C1=O (stereo not drawn) | < 5 µM |
| CN1C(=N)N[C@](C)(c2ccc(-c3cccc(C(F)(F)F)c3)s2)[C@@H](C2CC2)C1=O | < 5 µM |
| CN1C(=N)N[C@](C)(c2cc(-c3cc(C#N)cc(C#N)c3)cs2)CC1=O | < 5 µM |
| CN1C(=N)N[C@](C)(c2cc(-c3ccc(Cl)s3)cs2)CC1=O | < 5 µM |
| CN1C(=N)N[C@@](c2cccc(-c3cc(Br)ccn3)c2)(C2CC2)C1=O | < 5 µM |
| CN1C(=N)N[C@](CCc2ccccc2)(C[C@H]2CCC[C@@H](NC(=O)c3ccncc3)C2)C1=O | < 5 µM |
| CN1C(=N)N[C@](C)(c2nc(-c3cccc(C#N)c3)cs2)CC1=O | < 5 µM |
| CN1C(=N)N[C@](C)(c2ccc3c(cnn3CC3CCCC3)c2)CC1=O | < 5 µM |
| CC1(c2cccc(-c3cccc(Cl)c3)c2)NC(=N)N(CC2CCN(C(=O)C3CCCCC3)C2)C1=O (stereo not drawn) | < 5 µM |
| CN1C(=N)NC(c2cccc(Br)c2)(C2CCC2)C1=O (stereo not drawn) [5-(3-BROMOPHENYL)-5-CYCLOBUTYL-2-IMINO-3-METHYL-4-IMIDAZOLIDINONE] | < 5 µM |
| CN1C(=N)N[C@](C)(c2ncc(-c3cccc(Br)c3)s2)CC1=O | < 5 µM |
| N=C1NC(c2cccc(-c3cccc(Cl)c3)c2)(C2CC2)C(=O)N1C(CO)CO (stereo not drawn) [4-imidazolidinone, 5-(3′-chloro[1,1′-biphenyl]-3-yl)-5-cyclopropyl-3-[2-hydroxy-1-(hydroxymethyl)ethyl]-2-imino-] | < 5 µM |
| CN1OCC(C)(c2cccc(-c3cccc(Cl)c3)c2)NC1=N (stereo not drawn) | < 5 µM |
| CN1C(=N)NC(C)(c2cc(-c3cccc(C#N)c3)cs2)C(CC=Cc2ccc(F)cc2)C1=O (stereo not drawn) | < 5 µM |
| N=C1NC(c2ccccc2)(c2ccccc2)C(=O)N1Cc1cccc(NC(=O)C2CCCC2)c1 | < 5 µM |
| CC(C)(C)CC(=O)Nc1cccc(CN2C(=N)NC(c3ccccc3)(c3ccccc3)C2=O)c1 | < 5 µM |
| CCn1nccc1Nc1cccc(C2(c3ccccc3)NC(=N)N(C)C2=O)c1 (stereo not drawn) | < 5 µM |

| Compound | Ki |
| --- | --- |
| CC1(c2cccc(-c3cccc(Cl)c3)c2)NC(=N)N(CC2CCN(C(=O)Nc3ccccc3)C2)C1=O (stereo not drawn) | < 5 µM |
| CN1C(=N)N[C@](C)(c2cc3cccc(Br)c3s2)CC1=O | < 5 µM |
| COc1cncc(-c2cccc(C3(C)NC(=N)N(CC4CC(=O)N(c5ccccc5)C4)C3=O)c2)c1 (stereo not drawn) | < 5 µM |
| CN1C(=N)N[C@](C)(c2cccc(N3CCCCC3)c2)CC1=O | < 5 µM |
| CN1C(=N)N[C@](C)(c2cc(-c3cc(C#N)cc(C#N)c3)nn2C)CC1=O | < 5 µM |
| CN1C(=N)N[C@](C)(c2nc(-c3cccnc3)cs2)CC1=O | < 5 µM |
| CN1C(=N)N[C@](C)(c2cc(-c3cccc(OC(F)(F)F)c3)ccn2)CC1=O | < 5 µM |
| COc1cc(C#N)cc(-c2cc([C@@]3(C)NC(=N)N(C)C(=O)[C@@H]3C)sc2C)c1 | < 5 µM |
| CN1C(=N)N[C@](CCC2CCCCC2)(C[C@H]2CCC[C@@H](NC(=O)C3CCCC3)C2)C1=O | < 5 µM |
| COCC1CCCN1C(=O)c1cncc(CN2C(=N)NC(c3ccccc3)(C3CC3)C2=O)c1 (stereo not drawn) | < 5 µM |
| CN1C(=N)N[C@](CCC2CCCCC2)(C[C@H]2CCC[C@@H](NCCc3ccccc3)C2)C1=O | < 5 µM |
| CN1C(=N)N[C@](CCC2CCCCC2)(C[C@H]2CCC[C@@H](NC(=O)c3ccc4ccccc4n3)C2)C1=O | < 5 µM |
| CC(C)CC(=O)Nc1cccc(CN2C(=N)NC(c3ccccc3)(c3ccccc3)C2=O)c1 | < 5 µM |
| Cn1nccc1CN1C(=N)NC(c2ccccc2)(c2ccccc2)C1=O | < 5 µM |
| N=C1NC(c2ccccc2)(c2ccccc2)C(=O)N1Cc1cccc(C(=O)N2CCOCC2)c1 | < 5 µM |
| CN1C(=N)NC(c2ccccc2)(c2cccc(NC(=O)c3ccoc3)c2)C1=O (racemic) | < 5 µM |
| CN1C(=N)N[C@](C)(c2cccc(-c3ccc4scnc4c3)c2)CC1=O | < 5 µM |
| CN1C(=N)N[C@](C)(c2cc(-c3ccc(F)c(C#N)c3)cs2)[C@@H](C2CC2)C1=O | < 5 µM |
| CN1C(=N)N[C@](C)(c2c(F)cc(F)cc2F)[C@@H](c2ccc(C(C)(F)F)cc2)C1=O | < 5 µM |
| N=C1NC(c2cccc(-c3cccc(Cl)c3)c2)(C2CC2)C(=O)N1CC(F)(F)F (stereo not drawn) [4-imidazolidinone, 5-(3′-chloro[1,1′-biphenyl]-3-yl)-5-cyclopropyl-2-imino-3-(2,2,2-trifluoroethyl)-] | < 5 µM |
| CS(=O)(=O)Nc1cccc(CN2C(=N)NC(c3ccccc3)(c3ccccc3)C2=O)c1 | < 5 µM |
